Measurements published in patent publication US20230338386A1, “DPP-IV INHIBITOR COMBINED WITH A FURTHER ANTIDIABETIC AGENT, TABLETS COMPRISING SUCH FORMULATIONS, THEIR USE AND PROCESS FOR THEIR PREPARATION” (Boehringer Ingelheim International GmbH, priority 2008, published 2023).

Assay: Stability of FDC dosage forms (in words)
Type: physicochemical
Details: after 6 months storage at accelerated conditions; effect seems concentration dependent

suppression of degradation of BI 1356 free base in FDC combinations with metformin HCl: able to suppress degradation
SMILES: N=C(N)NCCC[C@H](N)C(=O)O [L-arginine]
